Literature values, collected in patent US20170240913A1, “Methods and Materials for Producing Coreless Fruit” (The New Zealand Institute for Plant and Food Research …, priority 2014, published 2017).

System: frost-damaged Bramley's Seedling
Conditions: frost-damaged Bramley's Seedling (triploid, partially self-fertile)

In the case of `c1ccc(CNc2ncnc3c2ncn3C2CCCCO2)cc1` (centres unmarked) [SD8339], the parthenocarpy is listed as “no additional benefits”.

In the case of `C=C1C[C@]23C[C@@]1(O)CC[C@H]2[C@@]12C=C[C@H](O)[C@@](C)(C(=O)O1)[C@H]2[C@@H]3C(=O)O` [GA3], the parthenocarpy is listed as “not effective”.
